{"source": "paper PMC4667193", "about": "(Scientific Reports, 2015)", "assay_type_in_all_cases": "cell-based", "key": {"Rat M4 mAChR": {"target": "T1, Rat M4 mAChR (Rattus norvegicus, UniProt P08485)", "T1 construct": "host or cells: CHO (CHO-K1) cells", "T1 sequence (P08485 1-478)": "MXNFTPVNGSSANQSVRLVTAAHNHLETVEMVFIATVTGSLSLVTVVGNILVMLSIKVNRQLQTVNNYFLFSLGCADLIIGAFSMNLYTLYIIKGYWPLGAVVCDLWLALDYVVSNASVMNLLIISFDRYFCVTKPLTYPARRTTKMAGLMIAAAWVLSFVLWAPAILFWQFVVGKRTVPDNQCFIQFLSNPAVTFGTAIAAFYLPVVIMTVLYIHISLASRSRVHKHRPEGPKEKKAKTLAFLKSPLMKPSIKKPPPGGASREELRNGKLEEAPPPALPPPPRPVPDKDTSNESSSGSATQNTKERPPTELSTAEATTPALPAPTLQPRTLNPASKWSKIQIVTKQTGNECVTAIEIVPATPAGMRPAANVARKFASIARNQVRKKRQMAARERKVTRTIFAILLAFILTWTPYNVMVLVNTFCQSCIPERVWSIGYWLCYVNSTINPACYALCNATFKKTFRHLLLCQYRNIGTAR", "test": "calcium mobilization assay in CHO cells (Gqi5)", "settings": "rat M4, 100 μM AEME on ACh curve", "description": "(§1) Chinese hamster ovary (CHO) cells individually and stably expressing individual rat mAChRs (rM1 to rM5 mAChRs) were purchased from the American Type Culture Collection (ATCC) and cultured according to ATCC recommendations. To generate stable rM2 and rM4 cell lines for use in calcium mobilization assays, rM2 and rM4-expressing cells were stably transfected with a chimeric G protein (Gqi5) using Lipofectamine 2000 (Invitrogen). rM2 and rM4 cells were grown in Ham’s F-12 medium containing 10% heat-inactivated fetal bovine serum (FBS), 2 mM GlutaMAX (Gibco®), 20 mM HEPES, 500 μg/mL G418 sulfate, 200 μg/mL hygromycin B and an antibiotic-antimycotic solution (Gibco®). rM1, rM3 and rM5 mAChR-CHO cells were grown in the same medium without hygromycin B[48]. CHO cells were cultured in a 150 mm-diameter cell culture-treated dishes (Corning®) at 37 °C and 5% CO2 until complete confluence.\n(§2) CHO cells expressing rM1, rM3 and rM5 were plated at 4 × 10^4 cells per well, whereas rM2 and rM4 were plated at 6 × 10^4 cells per well, in standard growth media (as described previously under “cell culture”) in 96-well plates 24 hours before assay and were incubated overnight at 37 °C in 5% CO2. […] Cells were incubated for 45 minutes (37 °C, 5% CO2) for dye loading. […] AEME concentration-response curves were determined in single-add experiments. […]"}, "Rat M2 mAChR": {"target": "T2, Rat M2 mAChR (Rattus norvegicus, UniProt P10980)", "T2 construct": "host or cells: CHO (CHO-K1) cells", "T2 sequence (P10980 1-466)": "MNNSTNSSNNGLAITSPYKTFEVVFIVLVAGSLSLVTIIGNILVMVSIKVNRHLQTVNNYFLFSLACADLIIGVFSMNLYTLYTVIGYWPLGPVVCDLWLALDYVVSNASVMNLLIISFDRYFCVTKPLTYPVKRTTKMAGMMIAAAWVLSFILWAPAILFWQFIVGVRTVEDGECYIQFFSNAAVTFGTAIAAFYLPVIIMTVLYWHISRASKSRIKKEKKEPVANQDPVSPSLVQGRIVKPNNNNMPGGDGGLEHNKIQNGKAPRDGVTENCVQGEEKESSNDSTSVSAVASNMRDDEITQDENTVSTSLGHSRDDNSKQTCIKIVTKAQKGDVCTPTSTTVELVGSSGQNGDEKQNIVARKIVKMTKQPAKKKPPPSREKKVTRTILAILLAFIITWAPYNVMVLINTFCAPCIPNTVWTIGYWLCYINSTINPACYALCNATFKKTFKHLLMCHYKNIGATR", "test": "calcium mobilization assay in CHO cells (Gqi5)", "settings": "rat M2, 100 μM AEME on ACh curve", "description": "as §1, §2"}, "[1]": {"tested_on": "rat primary hippocampal cell culture", "test": "intracellular calcium release in hippocampal cells (Fluo4-AM)", "settings": "10^−5, 10^−4 and 10^−3 M AEME", "description": "Hippocampal cells were removed from the plates and previously incubated with Fluo4-AM dye (Invitrogen) dissolved in Neurobasal medium (Gibco®) for one hour[46]. The cells were centrifuged (300 g for 5 minutes at 20 °C), washed with phosphate buffer solution (PBS) without calcium, and plated in microscopy confocal (Zeiss LSM 510, Meta) microplates pretreated with poli-L-lysine. The fluorescence was measured for 90 seconds in the absence and/or in the presence of 10^−5, 10^−4 and 10^−3 M AEME. After this period, 250 mM KCl was added in order to promote neuronal […] and, thus, verify its viability. All measurements were performed with a PBS free-calcium solution. Digitalized images were analyzed through the software Origin 5."}, "Rat M5 mAChR": {"target": "T3, Rat M5 mAChR (Rattus norvegicus, UniProt P08911)", "T3 construct": "host or cells: CHO (CHO-K1) cells", "T3 sequence (P08911 1-531)": "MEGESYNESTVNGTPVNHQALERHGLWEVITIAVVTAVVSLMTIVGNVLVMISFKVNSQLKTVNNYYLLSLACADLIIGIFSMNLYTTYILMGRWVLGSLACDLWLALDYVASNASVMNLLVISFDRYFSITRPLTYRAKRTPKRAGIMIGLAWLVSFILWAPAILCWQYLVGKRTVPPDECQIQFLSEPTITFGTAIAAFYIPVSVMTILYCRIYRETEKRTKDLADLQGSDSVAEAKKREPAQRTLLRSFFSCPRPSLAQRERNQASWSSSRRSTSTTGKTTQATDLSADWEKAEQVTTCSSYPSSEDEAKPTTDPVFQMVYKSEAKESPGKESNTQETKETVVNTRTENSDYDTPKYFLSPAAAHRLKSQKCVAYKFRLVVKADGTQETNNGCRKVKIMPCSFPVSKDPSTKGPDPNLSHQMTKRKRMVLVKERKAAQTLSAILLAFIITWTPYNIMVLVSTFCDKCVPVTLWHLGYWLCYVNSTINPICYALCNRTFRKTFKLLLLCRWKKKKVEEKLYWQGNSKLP", "test": "calcium mobilization assay in CHO cells, incl. Schild analysis", "description": "CHO cells expressing rM1, rM3 and rM5 were plated at 4 × 10^4 cells per well, whereas rM2 and rM4 were plated at 6 × 10^4 cells per well, in standard growth media (as described previously under “cell culture”) in 96-well plates 24 hours before assay and were incubated overnight at 37 °C in 5% CO2. […] Cells were incubated for 45 minutes (37 °C, 5% CO2) for dye loading. Fluo4-AM dye was removed, cells were washed and replaced with 40 μL of calcium assay buffer. AEME concentration-response curves were determined in single-add experiments. […] All compounds were dissolved in dimethyl sulfoxide (DMSO) and then in calcium assay buffer to obtain a final DMSO concentration of 0.3%. […] These values were fit using GraphPad Prism version 5.0 to determine EC50 values and Schild slope and pA2 in the Schild analyses."}, "[2]": {"settings": "rat M5, AEME 10^−6 to 10^−3.5 M vs acetylcholine"}}}
{"smiles": "COC(=O)C1=CC[C@@H]2CC[C@H]1N2C", "note": "[AEME, anhydroecgonine methyl ester]", "values": [{"measurement": "mechanism of action", "setting": "Rat M4 mAChR", "value": "antagonized the effects of ACh"}, {"measurement": "mechanism of action", "setting": "Rat M2 mAChR", "value": "antagonized the effects of ACh"}, {"measurement": "intracellular calcium release", "setting": "[1]", "value": "concentration-dependent increase"}, {"measurement": "mechanism of action", "setting": "Rat M5 mAChR; rat M5, 100 μM AEME on ACh curve", "value": "antagonized the effects of ACh"}, {"measurement": "Schild slope", "setting": "Rat M5 mAChR; [2]", "value": "0.95 ± 0.07"}, {"measurement": "pA2 (antagonist affinity, Schild analysis)", "setting": "Rat M5 mAChR; [2]", "value": "4.87 ± 0.10"}, {"measurement": "calcium increase", "setting": "Rat M5 mAChR; rat M5, agonist mode", "value": "no calcium increase"}]}
